{
  "source": "ChEMBL document CHEMBL5385848",
  "about": "“Discovery of novel hydroxyamidine based indoleamine 2,3-dioxygenase 1 (IDO1) and thioredoxin reductase 1 (TrxR1) dual inhibitors” (Eur J Med Chem, 2023)",
  "key": {"HCT-116 [1]": {"tested_on": "HCT-116", "test": "Induction of apoptosis in human HCT-116 cells assessed as apoptotic rate at 2.5 uM incubated for 24 hrs by Annexin-V/PI staining based flow cytometry analysis", "format": "functional"}, "IDO1": {"tested_on": "IDO1", "test": "Selectivity ratio of IC50 for cytotoxicity against mouse CT26 cells to EC50 for inhibition of IDO1 in mouse CT26 cells", "format": "cell-based", "conditions": "read-out: Ratio IC50/EC50"}, "[2]": {"test": "Cytotoxicity against mouse CT26 cells incubated for 48 hrs by CCK-8 assay", "format": "toxicity, cell-based"}, "[3]": {"molecular_target": "Indoleamine 2,3-dioxygenase 1 (Mus musculus) (UniProt P28776)", "sequence (P28776 whole entry, looked up)": "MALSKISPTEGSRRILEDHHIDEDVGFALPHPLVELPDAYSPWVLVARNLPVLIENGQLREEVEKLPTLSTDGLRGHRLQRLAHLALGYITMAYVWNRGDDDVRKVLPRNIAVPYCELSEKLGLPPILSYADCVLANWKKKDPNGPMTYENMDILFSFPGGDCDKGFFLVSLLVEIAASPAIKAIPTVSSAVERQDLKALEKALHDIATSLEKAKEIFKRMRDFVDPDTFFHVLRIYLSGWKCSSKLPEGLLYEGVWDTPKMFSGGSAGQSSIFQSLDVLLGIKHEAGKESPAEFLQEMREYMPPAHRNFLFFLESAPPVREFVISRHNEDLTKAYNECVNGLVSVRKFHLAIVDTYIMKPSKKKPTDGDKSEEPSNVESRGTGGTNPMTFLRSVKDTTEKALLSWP", "test": "In vivo inhibition of IDO1 in BALB/c mouse implanted with mouse CT-26 cells assessed as reduction in plasma Kyn level at 60 mg/kg, po administered once daily by LC-MS/MS analysis", "format": "functional, organism-based"}, "[4]": {"molecular_target": "Indoleamine 2,3-dioxygenase 1 (Mus musculus) (UniProt P28776)", "test": "In vivo inhibition of IDO1 in BALB/c mouse implanted with mouse CT-26 cells assessed as reduction in plasma Kyn/Trp ratio at 60 mg/kg, po administered once daily by LC-MS/MS analysis", "format": "functional, organism-based"}, "[5]": {"molecular_target": "Indoleamine 2,3-dioxygenase 1 (Mus musculus) (UniProt P28776)", "test": "In vivo inhibition of IDO1 in BALB/c mouse implanted with mouse CT-26 cells assessed as reduction in tumor Kyn level at 60 mg/kg, po administered once daily by LC-MS/MS analysis", "format": "functional, organism-based"}, "HCT-116 [6]": {"tested_on": "HCT-116", "test": "Antitumor activity against human HCT-116 cells xenografted in athymic nude BALB/c mouse assessed as increase in apoptotic cells at 15 to 60 mg/kg, ig administered daily for 28 days and measured every 4 days by tunel assay", "format": "functional, organism-based", "conditions": "dose 15-60 mg/kg, time 28.0 day"}},
  "note": "Activity calls are given as the source filed them. No cut-off for these calls is given here.",
  "data": [
    {"smiles": "O=C(Cc1ccc(O)cc1)Nc1nnc(CCCNc2nonc2/C(=N\\O)Nc2ccc(F)c(Br)c2)s1", "values": [
      {"measurement": "Activity", "setting": "HCT-116 [1]", "value": 22.57, "unit": "%"},
      {"measurement": "selectivity ratio", "setting": "IDO1", "value": 5.35},
      {"measurement": "IC50 at 48 h", "setting": "[2]", "value": 12.4, "unit": "µM"},
      {"measurement": "Activity", "setting": "[3]", "value": "Active"},
      {"measurement": "Activity", "setting": "[4]", "value": "Active"},
      {"measurement": "Activity", "setting": "[5]", "value": "Active"},
      {"measurement": "Activity", "setting": "HCT-116 [6]", "value": "Active"}
    ]}
  ]
}
